{"source": "patent US20130310256A1", "about": "“HERBICIDAL COMPOSITIONS COMPRISING 4-AMINO-3-CHLORO-5-FLUORO-6-(4-CHLORO-2-FLUORO-3-METHOXYPHENYL) PYRIDINE-2-CARBOXYLIC ACID OR A DERIVATIVE THEREOF AND VLCFA AND LIPID SYNTHESIS INHIBITING HERBICIDES” (DOW AGROSCIENCES LLC, priority 2008, published 2013)", "tested_on": "ECHCG", "experiment": "Example II: in-water applied weed control, transplanted paddy rice, greenhouse", "type": "in vivo, Echinochloa crus-galli (L.) Beauv. (barnyardgrass)", "protocol": "Weed seeds or nutlets of the desired test plant species were planted in puddled soil (mud) prepared by mixing a shredded, non-sterilized mineral soil (50.5 percent silt, 25.5 percent clay, and 24 percent sand, with a pH of about 7.6 and an organic matter content of about 2.9 percent) and water at a 1:1 volumetric ratio. The prepared mud was dispensed in 365 mL aliquots into 16-ounce (oz.) non-perforated plastic pots with a surface area of 86.59 square centimeters (cm^2) leaving a headspace of 3 centimeters (cm) in each pot. Mud was allowed to dry overnight prior to planting or transplanting. Rice seeds were planted in Sun Gro MetroMix® 306 planting mixture, which typically has a pH of 6.0 to 6.8 and an organic matter content of about 30 percent, in plastic plug trays. Seedlings at the second or third leaf stage of growth were transplanted into 840 mL of mud contained in 32-oz. non-perforated plastic pots with a surface area of 86.59 cm^2 4 days prior to herbicide application. The paddy was created by filling the headspace of the pots with 2.5 to 3 cm of water. When required to ensure good germination and healthy plants, a fungicide treatment and/or other chemical or physical treatment was applied. The plants were grown for 4-22 days in a greenhouse with an approximate 14 hr photoperiod which was maintained at about 29′C during the day and 26° C. during the night. Nutrients were added as Osmocote® (19:6:12, N:P:K+ minor nutrients) at 2 g per 16-oz. pot and 4 g per 32-oz. pot. Water was added on a regular basis to maintain the paddy flood, and supplemental lighting was provided with overhead metal halide 1000-Watt lamps as necessary. The plants were employed for testing when they reached the first through fourth true leaf stage.\nTreatments consisted of the acid or esters of 4-amino-3-chloro-5-fluoro-6-(4-chloro-2-fluoro-3-methoxy-phenyl)pyridine-2-carboxylic acid (compound A) each formulated as an SC (suspension concentrate) and various herbicidal components alone and in combination. Forms of compound A were applied on an acid equivalent basis.\nThe herbicidal components were applied on an active ingredient basis and included very long chain fatty acid (VLCFA) synthesis-inhibiting and fatty acid/lipid synthesis-inhibiting herbicides acetochlor (technical grade material), acetochlor+dichlormid formulateded as Topnotch®, pretilachlor (technical grade material), butachlor formulated as Butachlor EC, fentrazamide formulated as Fentrazamide EC, thiobencarb formulated as Bolero® 8EC, cafenstrole formulated as Himeadow® WP or Lapost® Flowable, benfuresate formulated as Full Shot®, anilofos (technical grade material), mefenacet (technical grade material), molinate (technical grade material), and thenylchlor (technical grade material).\nTreatment requirements for each compound or herbicidal component were calculated based upon the rates being tested, the concentration of active ingredient or acid equivalent in the formulation, an application volume of 2 mL per component per pot, and an application area of 86.59 cm^2 per pot.\nFor formulated compounds, a measured amount was placed in an individual 100 or 200 mL glass vial and was dissolved in a volume of 1.25% (v/v) Agri-Dex® crop oil concentrate to obtain application solutions.\nFor technical grade compounds, a weighed amount was placed in an individual 100 to 200 mL glass vial and was dissolved in a volume of acetone to obtain concentrated stock solutions. […] The concentrated stock solutions obtained were diluted with an equivalent volume of an aqueous mixture containing 2.5% (v/v) crop oil concentrate so that the final application solutions contained 1.25% (v/v) crop oil concentrate.\nApplications were made by injecting with a pipetter appropriate amounts of the application solutions, individually and sequentially, into the aqueous layer of the paddy. Control plants were treated in the same manner with the solvent blank. […]", "data": [{"smiles": "COc1c(Cl)ccc(-c2nc(C(=O)OCc3ccccc3)c(Cl)c(N)c2F)c1F", "note": "[Compound A Benzyl Ester, benzyl ester of 4-amino-3-chloro-5-fluoro-6-(4-chloro-2-fluoro-3-methoxy-phenyl)pyridine-2-carboxylic acid]", "values": [{"measurement": "Visual Weed Control (%) - 21 DAA ECHCG Obs", "setting": "4.38 gae/ha", "value": 15, "unit": "%"}, {"measurement": "Visual Weed Control (%) - 22 DAA ECHCG Obs", "setting": "4.38 gae/ha", "value": 10, "unit": "%"}, {"measurement": "Visual Weed Control ECHCG Obs", "setting": "4.38 gae/ha, 21 DAA", "value": 15, "unit": "%"}, {"measurement": "Visual Weed Control ECHCG Obs", "setting": "8 gae/ha, 19 DAA", "value": 30, "unit": "%"}, {"measurement": "Visual Weed Control (%) - 21 DAA ECHCG Obs", "setting": "8.75 gae/ha", "value": 20, "unit": "%"}, {"measurement": "Visual Weed Control (%) - 22 DAA ECHCG Obs", "setting": "8.75 gae/ha", "value": 25, "unit": "%"}, {"measurement": "Visual Weed Control ECHCG Obs", "setting": "8.75 gae/ha, 21 DAA", "value": 20, "unit": "%"}, {"measurement": "Visual Weed Control ECHCG Obs", "setting": "16 gae/ha, 19 DAA", "value": 20, "unit": "%"}, {"measurement": "Visual Weed Control (%) - 21 DAA ECHCG Obs", "setting": "17.5 gae/ha", "value": 75, "unit": "%"}, {"measurement": "Visual Weed Control (%) - 22 DAA ECHCG Obs", "setting": "17.5 gae/ha", "value": 60, "unit": "%"}, {"measurement": "Visual Weed Control ECHCG Obs", "setting": "17.5 gae/ha, 21 DAA", "value": 75, "unit": "%"}, {"measurement": "Visual Weed Control ECHCG Obs", "setting": "32 gae/ha, 19 DAA", "value": 40, "unit": "%"}]}, {"smiles": "COc1c(Cl)ccc(-c2nc(C(=O)O)c(Cl)c(N)c2F)c1F", "note": "[Compound A Acid, 4-amino-3-chloro-6-(4-chloro-2-fluoro-3-methoxyphenyl)-5-fluoropyridine-2-carboxylic acid]", "values": [{"measurement": "Visual Weed Control (%) - 21 DAA ECHCG Obs", "setting": "8.75 gae/ha", "value": 0, "unit": "%"}, {"measurement": "Visual Weed Control (%) - 22 DAA ECHCG Obs", "setting": "8.75 gae/ha", "value": 0, "unit": "%"}, {"measurement": "Visual Weed Control ECHCG Obs", "setting": "8.75 gae/ha, 21 DAA", "value": 0, "unit": "%"}, {"measurement": "Visual Weed Control (%) - 21 DAA ECHCG Obs", "setting": "17.5 gae/ha", "value": 0, "unit": "%"}, {"measurement": "Visual Weed Control (%) - 22 DAA ECHCG Obs", "setting": "17.5 gae/ha", "value": 15, "unit": "%"}, {"measurement": "Visual Weed Control ECHCG Obs", "setting": "17.5 gae/ha, 21 DAA", "value": 0, "unit": "%"}, {"measurement": "Visual Weed Control (%) - 21 DAA ECHCG Obs", "setting": "35 gae/ha", "value": 20, "unit": "%"}, {"measurement": "Visual Weed Control (%) - 22 DAA ECHCG Obs", "setting": "35 gae/ha", "value": 15, "unit": "%"}, {"measurement": "Visual Weed Control ECHCG Obs", "setting": "35 gae/ha, 21 DAA", "value": 20, "unit": "%"}, {"measurement": "Visual Weed Control ECHCG Obs", "setting": "42.4 gae/ha, 22 DAA", "value": 30, "unit": "%"}]}, {"smiles": "CCS(=O)(=O)Oc1ccc2c(c1)C(C)(C)CO2", "note": "[Benfuresate, 2,3-dihydro-3,3-dimethyl-5-benzofuranyl ethanesulfonate]", "values": [{"measurement": "Visual Weed Control ECHCG Obs", "setting": "75 gai/ha (Full Slot), 22 DAA", "value": 0, "unit": "%"}, {"measurement": "Visual Weed Control ECHCG Obs", "setting": "150 gai/ha (Full Slot), 22 DAA", "value": 0, "unit": "%"}]}, {"smiles": "CCN(CC)C(=O)n1cnc(S(=O)(=O)c2c(C)cc(C)cc2C)n1", "note": "[Cafenstrole, N,N-diethyl-3-[(2,4,6-trimethylphenyl)sulfonyl]-1H-1,2,4-triazole-1-carboxamide]", "values": [{"measurement": "Visual Weed Control ECHCG Obs", "setting": "52.5 gai/ha (Himeadow WP), 21 DAA", "value": 20, "unit": "%"}, {"measurement": "Visual Weed Control ECHCG Obs", "setting": "105 gai/ha (Himeadow WP), 21 DAA", "value": 25, "unit": "%"}]}]}
